Experimental data: paper PMC8905580, “Aggregation Behavior of Structurally Similar Therapeutic Peptides Investigated by ^1H NMR and All-Atom Molecular Dynamics Simulations” (Molecular Pharmaceutics, 2022)
Square brackets hold non-standard residues; d marks the D form. Peptide text beside a SMILES is read from it. * marks the point of attachment. dPhe(4-NHCONH2) = NC(=O)Nc1ccc(C[C@@H](N)C(=O)O)cc1; Dihydroorotyl(S) = O=C1C[C@@H](C(=O)*)NC(=O)N1; dPhe(4-Cl) = N[C@H](Cc1ccc(Cl)cc1)C(=O)O; Phe(4-NH2) = Nc1ccc(C[C@H](N)C(=O)O)cc1; d2Nal = N[C@H](Cc1ccc2ccccc2c1)C(=O)O; Lys(iPr) = CC(C)NCCCC[C@H](N)C(=O)O; d3Pal = N[C@H](Cc1cccnc1)C(=O)O

Columns and labels:
[1] = Visual inspection of samples for turbidity and viscosity; type: physicochemical; conditions: all samples 0.1-10 mM acetate salt in 100% H2O, no buffer, no pH adjustment; NMR tube in light box compared with pure water; room temperature
Description: (§1) ^1H NMR experiments were performed at peptide concentrations of 0.1, 0.5, 1, 2, 5, and 10 mM in 100% H2O. Peptide solutions were prepared in glass vials without pH adjustments, as the addition of concentrated acid or base results in local pH variations that might induce aggregation. Diffusion NMR experiments were performed at peptide concentrations of 3 and 10 mM in 100% D2O. Thus, the diffusion NMR results may not be perfectly representative of the situation in the samples in H2O, but general conclusions can still be drawn.
(§2) The samples were gently agitated, by manual swirling, until the solution appeared visually homogeneous and 450 μL of each sample was transferred to disposable 5 mm NMR tubes (Type 5TA 178 mm from Teknolab Sorbent, Sweden). Aliquots were pipetted slowly to reduce the risk of possible shear-induced aggregation. The time between sample preparation and the start of the NMR measurement was around 15 min. On selected samples, the approximate pH was assessed with pH indicator strips (Scharlau, pH 2.0–9.0, TP0209000S) after aliquots for the NMR samples were taken out.
The NMR tubes containing samples were visually inspected in a light box and compared to an NMR tube containing pure water to simplify identification of visually detectable aggregates.

[2] = 1H NMR in neat H2O, aggregation with concentration and time; type: physicochemical
Description: as §1, §2
NMR experiments were performed at 25 °C on either a Varian Unity Inova 500 MHz spectrometer equipped with a Z-spec DBG500-5EF 5 mm dual broadband gradient probe or a Bruker AVANCE III HD 500 MHz spectrometer equipped with a BBO probe, Bruker SMART probe. Spectra were recorded with an excitation sculpting sequence for solvent suppression.[40] […] On the Varian, 300 scans were used on samples of 0.1–1 mM and 64 on 1–10 mM (1 mM was measured using both settings to bridge the concentration series and ensure comparability), which gave adequate signal for unaggregated samples. […]
The absolute integral values (IntC), at each investigated concentration, for signals arising from the methyl groups of leucine (6H; for D-Phe^6-GnRH, cetrorelix, and degarelix) or nor-leucine (3H; for ozarelix) were determined. […] Additionally, IntC of the signal from the acetate counterion (a singlet) were determined for all peptides. […]

[3] = Approximate sample pH by pH indicator strips; type: physicochemical; conditions: all concentrations and time points investigated, H2O
[4] = set-up: method as in PMID 33586081; conditions: seen as reduction in total detectable signal and decrease in fraction of sharp signals; cited from earlier work

CC(=O)N[C@H](Cc1ccc2ccccc2c1)C(=O)N[C@H](Cc1ccc(Cl)cc1)C(=O)N[C@H](Cc1cccnc1)C(=O)N[C@@H](CO)C(=O)N[C@@H](Cc1ccc(NC(=O)[C@@H]2CC(=O)NC(=O)N2)cc1)C(=O)N[C@H](Cc1ccc(NC(N)=O)cc1)C(=O)N[C@@H](CC(C)C)C(=O)N[C@@H](CCCCNC(C)C)C(=O)N1CCC[C@H]1C(=O)N[C@H](C)C(N)=O [degarelix] (Ac-[d2Nal][dPhe(4-Cl)][d3Pal]S[Phe(4-NH2)](Dihydroorotyl(S))[dPhe(4-NHCONH2)]L[Lys(iPr)]P[dA]-NH2)
Visual appearance of samples over the investigated time span [1]: visually clear
Concentration at which a distinct group of broad peaks at 1.2-1.6 ppm (intermediately sized aggregates) appears ([2]; 1H NMR, 25 °C, 100% H2O): ≥ 1000 µM
Change of 1H NMR spectra over time, 5 and 10 mM samples ([2]; 5 and 10 mM in 100% H2O, over investigated timespan (ozarelix: rapid 4 scan experiments about 15 and 25 min after preparation, 24 h)): increased notably in intensity
Fate of acetate counterions in the peptide aggregates formed (1H NMR acetate signal) ([2]; acetate salts, 0.1-10 mM in 100% H2O, 25 °C): exclusion
Sample pH [3]: ~ 5.5
Effect of buffer or background salt on aggregation (1H NMR) [4]: strongly enhance aggregation
